Measured values: PubChem BioAssay (NCI)
“And” between values parts separate entries of the source, which are not always exact repeats. Identical values can stand only once.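 Each compound was tested at five concentrations against cells in 96-well plates for 48 hours. GI50: concentration for 50% inhibition of growth. TGI: total growth inhibition.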

Assays:
Experiment in all cases: inhibition of tumour cell growth, NCI panel, 48 h
[1] = test system: LOX IMVI melanoma
[2] = test system: OVCAR-3 ovarian
[3] = test system: SK-MEL-5 melanoma
[4] = test system: BT-549 breast
[5] = test system: SNB-75 CNS
[6] = test system: SK-MEL-2 melanoma
[7] = test system: A498 renal
[8] = test system: KM12 colon
[9] = test system: OVCAR-8 ovarian
[10] = test system: EKVX NSCLC
[11] = test system: MOLT-4 leukemia
[12] = test system: 786-0 renal
[13] = test system: T-47D breast
[14] = test system: NCI-H226 lung
[15] = test system: CCRF-CEM leukemia
[16] = test system: HOP-62 NSCLC
[17] = test system: UACC-62 melanoma
[18] = test system: SF-268 CNS
[19] = test system: CAKI-1 renal
[20] = test system: UO-31 renal
[21] = test system: HCC-2998 colon
[22] = test system: SNB-19 CNS
[23] = test system: PC-3 prostate
[24] = test system: RXF 393 renal
[25] = test system: TK-10 renal
[26] = test system: COLO 205 colon
[27] = test system: DU-145 prostate
[28] = test system: OVCAR-4 ovarian
[29] = test system: MCF7 breast
[30] = test system: SK-OV-3 ovarian
[31] = test system: K-562 leukemia
[32] = test system: NCI/ADR-RES ovarian
[33] = test system: NCI-H23 lung
[34] = test system: HT29 colon
[35] = test system: NCI-H460 lung
[36] = test system: NCI-H522 lung
[37] = test system: SR leukemia
[38] = test system: HCT-116 colon
[39] = test system: SF-539 CNS
[40] = test system: SN12C renal
[41] = test system: MDA-MB-231 breast
[42] = test system: SW-620 colon
[43] = test system: HOP-92 NSCLC
[44] = test system: SF-295 CNS
[45] = test system: U251 CNS
[46] = test system: HCT-15 colon
[47] = test system: IGROV1 ovarian
[48] = test system: SK-MEL-28 melanoma
[49] = test system: A549 NSCLC
[50] = test system: OVCAR-5 ovarian
[51] = test system: UACC-257 melanoma
[52] = test system: ACHN renal
[53] = test system: HL-60(TB) leukemia
[54] = test system: HS 578T breast
[55] = test system: M14 melanoma
[56] = test system: MDA-MB-435
[57] = test system: RPMI-8226 leukemia

`O=C(O)c1c(Cl)c(Cl)c(Cl)c(Cl)c1-c1c2cc(I)c(=O)c(I)c-2oc2c(I)c(O)c(I)cc12` was tested, and the GI50 [1] was 19 µM and 34.7 µM, the TGI [1] was 43.1 µM and 67.9 µM and the GI50 [2] was 32.1 µM and 33 µM. It also gave a TGI [2] of 72.1 µM, a GI50 [3] of 36.3 µM and a TGI [3] of 68.9 µM. For the same compound, the GI50 [4] was 26.9 µM and 35.9 µM, the TGI [4] was 82.6 µM and 83.2 µM and the GI50 [5] was 32.1 µM and 34 µM. The TGI [5] was 79.8 µM, the GI50 [6] was 81.4 µM and 37 µM and the TGI [6] was 78.8 µM. The GI50 [7] was 29.5 µM and 26.1 µM, the TGI [7] was 64.2 µM and the GI50 [8] was 53.6 µM. For the same compound, the TGI [8] was 182 µM, the GI50 [9] was 58.2 µM and 47.4 µM and the TGI [9] was 115 µM. The GI50 [10] was 63.5 µM, the TGI [10] was > 200 µM and the GI50 [11] was 40.8 µM. For the same compound, the TGI [11] was 86.2 µM, the GI50 [12] was 46.5 µM and the TGI [12] was 123 µM. For the same compound, the GI50 [13] was 29.4 µM, the TGI [13] was 78.2 µM and the GI50 [14] was 79.7 µM and 38.8 µM. For the same compound, the TGI [14] was 90.9 µM, the GI50 [15] was 30.2 µM and 41.9 µM and the TGI [15] was 95.7 µM. For the same compound, the GI50 [16] was 80.7 µM and 31 µM, the TGI [16] was 87.4 µM and the GI50 [17] was 18.6 µM and 31.6 µM. The TGI [17] was 41.3 µM and 68.6 µM, the GI50 [18] was 41.3 µM and 36.8 µM and the TGI [18] was 81.2 µM. The GI50 [19] was 39 µM, the TGI [19] was 86.7 µM and the GI50 [20] was 43.5 µM. The TGI [20] was 107 µM, the GI50 [21] was 36.5 µM and the TGI [21] was 70.8 µM. For the same compound, the GI50 [22] was 38.2 µM and 28.6 µM, the TGI [22] was 63.8 µM and the GI50 [23] was 39.8 µM and 42.3 µM. The TGI [23] was 89.3 µM, the GI50 [24] was 27.5 µM and 15 µM and the TGI [24] was 45.4 µM. The GI50 [25] was 59 µM, the TGI [25] was > 200 µM and the GI50 [26] was 45.8 µM. It also gave a TGI [26] of 159 µM, a GI50 [27] of 37.2 µM and a TGI [27] of 94.3 µM. The GI50 [28] was 93.1 µM and 43.9 µM, the TGI [28] was 105 µM and the GI50 [29] was 83.5 µM. For the same compound, the TGI [29] was > 200 µM, the GI50 [30] was 32.4 µM and the TGI [30] was 78.6 µM. For the same compound, the GI50 [31] was 39.2 µM and 46 µM, the TGI [31] was 116 µM and the GI50 [32] was > 200 µM. For the same compound, the TGI [32] was > 200 µM, the GI50 [33] was 47 µM and the TGI [33] was 125 µM. The GI50 [34] was 52.6 µM, the TGI [34] was 154 µM and the GI50 [35] was 58.8 µM. The TGI [35] was > 200 µM, the GI50 [36] was 26.6 µM and 39.4 µM and the TGI [36] was 59.9 µM and 83.2 µM. The GI50 [37] was 39.1 µM and 31.6 µM, the TGI [37] was 87.6 µM and the GI50 [38] was 45.4 µM and 37.2 µM. The TGI [38] was 81.5 µM, the GI50 [39] was 32.7 µM and 34.6 µM and the TGI [39] was 89.7 µM. For the same compound, the GI50 [40] was 75.5 µM and 32.6 µM, the TGI [40] was 103 µM and the GI50 [41] was 22.5 µM and 26.7 µM. For the same compound, the TGI [41] was 82.8 µM and 75.5 µM, the GI50 [42] was 74.4 µM and 37.6 µM and the TGI [42] was 79.1 µM. The GI50 [43] was 19.3 µM and 29.7 µM, the TGI [43] was 68 µM and 71.6 µM and the GI50 [44] was 38.1 µM. The TGI [44] was 78.7 µM, the GI50 [45] was 26.3 µM and 35.1 µM and the TGI [45] was 83.9 µM. The GI50 [46] was 55.7 µM, the TGI [46] was 162 µM and the GI50 [47] was 88.2 µM and 34.9 µM. For the same compound, the TGI [47] was 83.8 µM, the GI50 [48] was 55.9 µM and 32.9 µM and the TGI [48] was 73 µM. For the same compound, the GI50 [49] was 177 µM, the TGI [49] was > 200 µM and the GI50 [50] was 41.9 µM. It also gave a TGI [50] of 163 µM, a GI50 [51] of 53.5 µM and a TGI [51] of 163 µM. The GI50 [52] was 54.8 µM, the TGI [52] was > 200 µM and the GI50 [53] was 73 µM and 42.9 µM. For the same compound, the TGI [53] was 85.2 µM, the GI50 [54] was 35.7 µM and 33 µM and the TGI [54] was 83.7 µM. For the same compound, the GI50 [55] was 58.7 µM, the TGI [55] was > 200 µM and the GI50 [56] was 62.9 µM and 41.4 µM. For the same compound, the TGI [56] was 93 µM, the GI50 [57] was 122 µM and the TGI [57] was > 200 µM.
